From ChEMBL document CHEMBL4261602, “Tri-armed ligands of G-quadruplex on heteroarene-fused anthraquinone scaffolds: Design, synthesis and pre-screening of biological properties” (Eur J Med Chem, 2018)

Legend:
[1] = test system: Quadruplex DNA; experiment: Stabilization of human FAM-5'-d(AGGGTTAGGGTTAGGGTTAGGG)-3'-BHQ1 telomeric G4 quadruplex DNA assessed as change in melting temperature at 1 uM in presence of 50 fold excess of competitor ds26 oligonucleotide DNA by FRET assay; format: nucleic-acid assay
[2] = test system: L1210; experiment: Antiproliferative activity in mouse L1210 cells after 48 hrs by MTT assay; format: functional, cell-based; conditions: L1210, 48 h
[3] = test system: Quadruplex DNA; experiment: Stabilization of human FAM-5'-d(AGGGTTAGGGTTAGGGTTAGGG)-3'-BHQ1 telomeric G4 quadruplex DNA assessed as binding constant at 1 uM by FRET assay; format: nucleic-acid assay
[4] = test system: Quadruplex DNA; experiment: Stabilization of human FAM-5'-d(AGGGTTAGGGTTAGGGTTAGGG)-3'-BHQ1 telomeric G4 quadruplex DNA assessed as change in melting temperature at 1 uM by FRET assay; format: nucleic-acid assay
[5] = test system: HeLa; experiment: Antiproliferative activity in human HeLa cells after 72 hrs by MTT assay; format: functional, cell-based
[6] = test system: CCRF-CEM; experiment: Antiproliferative activity in human CEM cells after 72 hrs by MTT assay; format: functional, cell-based
[7] = Selectivity ratio of Kb for human FAM-5'-d(AGGGTTAGGGTTAGGGTTAGGG)-3'-BHQ1 telomeric G4 quadruplex DNA to Kb for d(CAATCGGATCGAATTCGATCCGATTG) DNA (unknown origin)
[8] = Stabilization of d(CAATCGGATCGAATTCGATCCGATTG) DNA (unknown origin) assessed as binding constant at 1 uM by FRET assay
[9] = Drug uptake in human K562 cells at 1 uM within 15 mins by flow cytometry analysis; format: ADME, cell-based; conditions: k562, 0.25 h

Compound | ΔTm [1] [°C] | IC50 [2] [µM] | Kb [3] [×10⁶ /M] | ΔTm [4] [°C] | IC50 [5] [µM] | IC50 [6] [µM] | Selectivity ratio [7] | Kb [8] [×10⁶ /M] | Drug uptake [9]
N=C(N)NCCNC(=O)c1cc2c(NCCNC(=N)N)c3c(c(NCCNC(=N)N)c2o1)C(=O)c1ccccc1C3=O | 20.3 | 9 | 46 | 21.3 | 14 | 12 | 2300 | 0.02 | 
N=C(N)NCCCNC(=O)c1cc2c(NCCNC(=N)N)c3c(c(NCCNC(=N)N)c2s1)C(=O)c1ccccc1C3=O | 19 | 13 | 40 | 20.5 | 15 | 13 | 1300 | 0.03 | Active
N=C(N)NCCNc1c2c(c(NCCNC(=N)N)c3sccc13)C(=O)c1ccccc1C2=O | 1 |  | 6 | 11 | 13 |  | 60 | 0.1 | Active
N=C(N)NCCCNC(=O)c1cc2c(NCCCNC(=N)N)c3c(c(NCCCNC(=N)N)c2s1)C(=O)c1ccccc1C3=O | 17 | 10 | 47 | 22 | 18 | 11 | 1700 | 0.03 | 
N=C(N)NCCNC(=O)c1cc2c(NCCCCCN)c3c(c(NCCCCCN)c2o1)C(=O)c1ccccc1C3=O | 13 | 19 | 22 | 18 | 11 | 18 | 850 | 0.03 | 
N=C(N)NCCNC(=O)c1cc2c(NCCNC(=N)N)c3c(c(NCCNC(=N)N)c2s1)C(=O)c1ccccc1C3=O | 10 | 12 | 33 | 20 | 18 | 16 | 300 | 0.1 | 
N=C(N)NCCCNc1c2c(c(NCCCNC(=N)N)c3sc(C(=O)NCCNC(=N)N)cc13)C(=O)c1ccccc1C2=O | 21 | 9 | 44 | 21 | 17 | 12 |  |  | 
N=C(N)NCCCNC(=O)c1cc2c(NCCOCCN)c3c(c(NCCOCCN)c2s1)C(=O)c1ccccc1C3=O | 14 | 10 | 29 | 20 | 9 | 11 | 950 | 0.03 | 

Continued by falling IC50 [5], values first:

ΔTm [1] [°C] | IC50 [2] [µM] | Kb [3] [×10⁶ /M] | ΔTm [4] [°C] | IC50 [5] [µM] | IC50 [6] [µM] | Selectivity ratio [7] | Kb [8] [×10⁶ /M] | Drug uptake [9] | Compound
24 | 18 | 91 | 25 | 17 | 17 | 4550 | 0.02 |  | N=C(N)NCCCNC(=O)c1cc2c(NCCCNC(=N)N)c3c(c(NCCCNC(=N)N)c2o1)C(=O)c1ccccc1C3=O
15 | 17 | 22 | 18 | 14 | 15 | 1500 | 0.01 |  | N=C(N)NCCCNC(=O)c1cc2c(NCCCCCN)c3c(c(NCCCCCN)c2o1)C(=O)c1ccccc1C3=O
18 | 19 | 38 | 21 | 12 | 21 | 2800 | 0.01 | Active | N=C(N)NCCCNC(=O)c1cc2c(NCCCCCN)c3c(c(NCCCCCN)c2s1)C(=O)c1ccccc1C3=O
18 | 12 | 45 | 22 | 11 | 16 | 2500 | 0.02 |  | N=C(N)NCCCNC(=O)c1cc2c(NCCCCN)c3c(c(NCCCCN)c2s1)C(=O)c1ccccc1C3=O
